Reference: paper PMC12051620, “Molecular basis underlying the specificity of an antagonist AA92593 for mammalian melanopsins” (The Journal of Biological Chemistry, 2025)

Tests used:
Test in all cases: GsX GloSensor assay with Gsα/q11
Conditions in all cases: 16.7 μM AA92593, COS-1 cells
[1] = tested on: lanceolatum melanopsin WT; assay type: cell-based, Branchiostoma lanceolatum
Description: Non-mammalian-type melanopsins were successfully converted into AA92593-susceptible types by introducing Phe-94^2.61/Ser-188^ECL2/Ser-269^6.52 or Phe-207^5.42 (Fig. 6). We attempted to extend the functional conversion targets to invertebrate melanopsin (see Fig. S2). […] We assessed the susceptibility of belcheri and lanceolatum melanopsins to AA92593 using the GsX GloSensor assay with Gsα/q11. In the absence of AA92593, the belcheri melanopsin produced smaller light-dependent cAMP responses than the other melanopsins assessed in this study (Fig. 7A), whereas the lanceolatum melanopsin produced robust cAMP responses upon light illumination (Fig. 7B). […] On the other hand, responses by the lanceolatum melanopsin were insensitive to the antagonist (Fig. 7B), similar to non-mammalian-type melanopsins (Fig. 6, A and D). […]
For GloSensor assay, opsins, GloSensor assay sensor (coded by pGlo-22F), and NanoBiT-tagged G proteins were transiently expressed in COS-1 cells (kindly provided from Dr David Farrens, Oregon Health and Science University) using PEI as described previously ([24], [52]). […] For GFP-fluorescence microscopy, a 35-mm cell culture dish (IWAKI) was transfected with 2 μg melanopsin-GFP plasmid and 8 μg PEI in 400 μl Opti-mem and 1.2 ml D-MEM. […]

[2] = tested on: chicken Opn4-1 WT; assay type: cell-based
Description: (§1) The GsX GloSensor assay using Gsα/q11 of Xenopus Opn4x and chicken Opn4-1 detected the light-dependent Gq activation in both non-mammalian-type melanopsins (Fig. 6, A and D). […] The ineffectiveness of AA92593 is consistent with the fact that Phe-94^2.61, Ser-188^ECL2, and Ser-269^6.52 are not conserved among non-mammalian-type melanopsins (Figs. 2A, S2 and S3). If these three residues are important for the antagonistic effect against melanopsins, the introduction of Phe-94^2.61/Ser-188^ECL2/Ser-269^6.52 into the non-mammalian-type melanopsins would make them susceptible to AA92593. As expected, the substitutions of C94^2.61F/T188S^ECL2/A269^6.52S in Xenopus Opn4x and chicken Opn4-1 increased their sensitivity to AA92593 by ∼49% and ∼22%, respectively (Fig. 6, B and E, G–I). Based on the loss-of-function properties of F94^2.61C/S188^ECL2T/S269^6.52A mutants of mammalian-type melanopsins and the gain-of-function properties of C94^2.61F/T188^ECL2S/A269^6.52S mutants of non-mammalian-type melanopsins (Figs. 2G, 3E, 6, G and H), we propose that Phe-94^2.61, Ser-188^ECL2, and Ser-269^6.52 are required for specific interactions with AA92593 as an effective antagonist. […]

[3] = biological target: T1, Xenopus Opn4x WT (Xenopus laevis, UniProt O57422); assay type: cell-based
T1 construct: expressed in transfected cells; host or cells: COS-1
Description: as §1

T1 sequence (O57422 1-334 limits assumed): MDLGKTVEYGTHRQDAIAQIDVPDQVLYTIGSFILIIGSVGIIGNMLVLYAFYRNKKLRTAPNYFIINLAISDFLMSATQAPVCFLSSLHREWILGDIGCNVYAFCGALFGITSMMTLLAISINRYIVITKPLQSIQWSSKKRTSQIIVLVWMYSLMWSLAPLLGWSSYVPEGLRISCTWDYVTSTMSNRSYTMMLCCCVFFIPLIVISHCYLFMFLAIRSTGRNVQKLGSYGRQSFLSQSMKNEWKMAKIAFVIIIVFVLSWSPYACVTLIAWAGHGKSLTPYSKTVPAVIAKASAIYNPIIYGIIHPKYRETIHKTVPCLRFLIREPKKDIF

COc1ccc(S(=O)(=O)N2CCCCC2)cc1C [AA92593] was tested, and the “sensitivity of light-induced responses to the antagonist” value [1] was “insensitive”, the “inhibition of the light-dependent responses” value [2] was “did not effectively inhibit” and the “inhibition of the light-dependent responses” value [3] was “did not effectively inhibit”.
